In patent publication US7754716B2, “Combination comprising a vasculostatic compound and an alkylating agent for the treatment of a tumor” (Novartis AG, priority 2002, dated 2010):

Tested on: recurrent glioblastoma
Assay: Treatment of a patient with recurrent glioblastoma with temozolomide plus PTK787
Type: in vivo, human
Settings: one patient with histologically confirmed recurrent glioblastoma; temozolomide 50 mg/m^2 daily for 5 consecutive days every 28 days in addition to continuous daily dose of 1000 mg PTK787; observed during the third cycle
Experimental: Suitable clinical studies are, for example, randomized, double-blind, placebo-controlled, parallel studies in patients with recurrent glioblastoma, but also dose escalation studies. […] Tumor assessment in the form of dynamic contrast-enhanced MRI is also a suitable approach to determine the effect of the COMBINATION OF THE INVENTION. In a suitable study design, patients are receiving, for example, temozolomide in a dosage of 50 to 250 mg/m^2 daily, for example, 200 mg/m^2 daily, for 5 consecutive days every 28 days or placebo in addition to a continuous daily dose of 500 to 2000 mg of a compound of formula I, e.g., 500, 1000, 1500 or 2000 mg of PTK787 or placebo.

Clc1ccc(Nc2nnc(Cc3ccncc3)c3ccccc23)cc1 [PTK787]
disease status observed under treatment: stable disease
